Where two headings read alike, the source gives them in different places.
Tests used:
Assay in all cases: KINOMEscan
Format in all cases: binding
VPS34 = VPS34 (Homo sapiens (Human), UniProt Q8NEB9); settings: VPS34, 10000 nM; read-out: Percent Control
YANK2 = YANK2 (Homo sapiens (Human), UniProt Q9NY57); settings: YANK2, 10000 nM; read-out: Percent Control
PIK3CA(E542K) = PIK3CA(E542K) (Homo sapiens (Human), UniProt P42336, E542K); settings: 10000 nM, read-out: Percent Control
MKNK1 = MKNK1 (Homo sapiens (Human), UniProt Q9BUB5); settings: MKNK1, 10000 nM; read-out: Percent Control
FLT3-autoinhibited = FLT3-autoinhibited (Homo sapiens (Human), UniProt P36888); settings: 10000 nM, read-out: Percent Control
RET = RET (Homo sapiens (Human), UniProt P07949); settings: 10000 nM, read-out: Percent Control
PAK4 = PAK4 (Homo sapiens (Human), UniProt O96013); settings: PAK4, 10000 nM; read-out: Percent Control
MERTK = MERTK (Homo sapiens (Human), UniProt Q12866); settings: 10000 nM, read-out: Percent Control
WEE1 = WEE1 (Homo sapiens (Human), UniProt P30291); settings: WEE1, 10000 nM; read-out: Percent Control
BTK = BTK (Homo sapiens (Human), UniProt Q06187); settings: 10000 nM, read-out: Percent Control
CDK3 = CDK3 (Homo sapiens (Human), UniProt Q00526); settings: CDK3, 10000 nM; read-out: Percent Control
p38-beta = p38-beta (Homo sapiens (Human), UniProt Q15759); settings: 10000 nM, read-out: Percent Control
IKK-epsilon = IKK-epsilon (Homo sapiens (Human), UniProt Q14164); settings: 10000 nM, read-out: Percent Control
CAMK2A = CAMK2A (Homo sapiens (Human), UniProt Q9UQM7); settings: 10000 nM, read-out: Percent Control
SGK = SGK (Homo sapiens (Human), UniProt O00141); settings: 10000 nM, read-out: Percent Control
PRKCI = PRKCI (Homo sapiens (Human), UniProt P41743); settings: 10000 nM, read-out: Percent Control
TGFBR1 = TGFBR1 (Homo sapiens (Human), UniProt P36897); settings: TGFBR1, 10000 nM; read-out: Percent Control
MAPKAPX5 = MAPKAPX5 (Homo sapiens (Human), UniProt Q8IW41); settings: read-out: Percent Control
[1] = target: TYK2(JH2domain-pseudokinase) (Homo sapiens (Human), UniProt P29597); settings: 10000 nM, read-out: Percent Control
MARK4 = MARK4 (Homo sapiens (Human), UniProt Q96L34); settings: MARK4, 10000 nM; read-out: Percent Control
PYK2 = PYK2 (Homo sapiens (Human), UniProt Q14289); settings: PYK2, 10000 nM; read-out: Percent Control
STK39 = STK39 (Homo sapiens (Human), UniProt Q9UEW8); settings: STK39, 10000 nM; read-out: Percent Control
NEK11 = NEK11 (Homo sapiens (Human), UniProt Q8NG66); settings: NEK11, 10000 nM; read-out: Percent Control
CAMK1 = CAMK1 (Homo sapiens (Human), UniProt Q14012); settings: CAMK1, 10000 nM; read-out: Percent Control
YSK4 = YSK4 (Homo sapiens (Human), UniProt Q56UN5); settings: YSK4, 10000 nM; read-out: Percent Control
JNK1 = JNK1 (Homo sapiens (Human), UniProt P45983); settings: JNK1, 10000 nM; read-out: Percent Control
MARK3 = MARK3 (Homo sapiens (Human), UniProt P27448); settings: MARK3, 10000 nM; read-out: Percent Control
MST3 = MST3 (Homo sapiens (Human), UniProt Q9Y6E0); settings: MST3, 10000 nM; read-out: Percent Control
PFPK5(P. falciparum) = PFPK5(P. falciparum) (Plasmodium falciparum (isolate 3D7), UniProt P61075); settings: 10000 nM, read-out: Percent Control
ULK2 = ULK2 (Homo sapiens (Human), UniProt Q8IYT8); settings: ULK2, 10000 nM; read-out: Percent Control
GRK3 = GRK3 (Homo sapiens (Human), UniProt P35626); settings: GRK3, 10000 nM; read-out: Percent Control
NIK = NIK (Homo sapiens (Human), UniProt Q99558); settings: 10000 nM, read-out: Percent Control
PIKFYVE = PIKFYVE (Homo sapiens (Human), UniProt Q9Y2I7); settings: 10000 nM, read-out: Percent Control
FLT3(D835Y) = FLT3(D835Y) (Homo sapiens (Human), UniProt P36888, D835Y); settings: 10000 nM, read-out: Percent Control
CSNK1A1L = CSNK1A1L (Homo sapiens (Human), UniProt Q8N752); settings: 10000 nM, read-out: Percent Control
Sequence of CSNK1A1L (Q8N752 whole entry): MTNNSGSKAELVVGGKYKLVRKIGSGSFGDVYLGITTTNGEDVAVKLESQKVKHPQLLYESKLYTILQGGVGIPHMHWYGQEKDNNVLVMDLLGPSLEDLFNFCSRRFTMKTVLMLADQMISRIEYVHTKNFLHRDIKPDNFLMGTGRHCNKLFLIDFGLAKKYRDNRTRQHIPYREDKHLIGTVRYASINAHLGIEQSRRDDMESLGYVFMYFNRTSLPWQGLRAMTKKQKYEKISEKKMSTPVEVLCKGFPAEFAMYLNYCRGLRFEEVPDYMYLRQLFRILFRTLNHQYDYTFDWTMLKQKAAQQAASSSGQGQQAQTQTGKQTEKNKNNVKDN

Sequence of CDK3 (Q00526 whole entry): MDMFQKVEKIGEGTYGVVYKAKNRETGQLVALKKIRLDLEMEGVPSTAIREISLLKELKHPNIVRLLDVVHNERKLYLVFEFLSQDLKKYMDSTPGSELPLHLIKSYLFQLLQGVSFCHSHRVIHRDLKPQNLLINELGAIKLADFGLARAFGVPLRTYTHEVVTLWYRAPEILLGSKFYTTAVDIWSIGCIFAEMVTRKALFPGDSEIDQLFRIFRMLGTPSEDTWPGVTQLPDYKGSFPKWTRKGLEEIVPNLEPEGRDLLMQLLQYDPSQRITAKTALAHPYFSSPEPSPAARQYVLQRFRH
Sequence of RET (P07949 29-1114): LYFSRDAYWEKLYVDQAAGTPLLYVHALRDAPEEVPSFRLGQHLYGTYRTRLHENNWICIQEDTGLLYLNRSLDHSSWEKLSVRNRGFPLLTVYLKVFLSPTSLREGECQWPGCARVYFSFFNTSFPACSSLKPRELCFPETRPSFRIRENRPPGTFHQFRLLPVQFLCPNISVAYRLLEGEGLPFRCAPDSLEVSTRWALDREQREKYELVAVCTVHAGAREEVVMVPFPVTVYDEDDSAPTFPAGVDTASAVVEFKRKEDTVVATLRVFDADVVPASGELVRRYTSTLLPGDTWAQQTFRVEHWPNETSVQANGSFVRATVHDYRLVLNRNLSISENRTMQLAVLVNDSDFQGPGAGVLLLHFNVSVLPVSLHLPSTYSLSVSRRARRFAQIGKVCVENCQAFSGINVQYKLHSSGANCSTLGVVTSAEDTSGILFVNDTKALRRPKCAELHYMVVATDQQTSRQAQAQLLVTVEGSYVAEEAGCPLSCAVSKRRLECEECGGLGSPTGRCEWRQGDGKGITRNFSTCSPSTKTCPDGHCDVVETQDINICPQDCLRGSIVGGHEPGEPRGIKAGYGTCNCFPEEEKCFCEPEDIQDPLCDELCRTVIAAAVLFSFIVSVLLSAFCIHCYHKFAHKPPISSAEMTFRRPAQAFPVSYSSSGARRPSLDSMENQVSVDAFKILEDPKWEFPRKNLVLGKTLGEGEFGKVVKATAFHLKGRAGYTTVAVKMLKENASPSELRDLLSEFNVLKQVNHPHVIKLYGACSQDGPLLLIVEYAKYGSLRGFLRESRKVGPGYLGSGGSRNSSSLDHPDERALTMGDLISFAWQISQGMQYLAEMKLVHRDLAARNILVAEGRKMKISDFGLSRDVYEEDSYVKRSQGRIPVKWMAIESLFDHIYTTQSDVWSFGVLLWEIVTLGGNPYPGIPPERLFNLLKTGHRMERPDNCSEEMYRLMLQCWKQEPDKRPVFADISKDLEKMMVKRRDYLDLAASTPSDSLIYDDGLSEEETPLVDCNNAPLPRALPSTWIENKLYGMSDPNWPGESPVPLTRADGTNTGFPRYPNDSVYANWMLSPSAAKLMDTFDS
Sequence of PRKCI (P41743 whole entry): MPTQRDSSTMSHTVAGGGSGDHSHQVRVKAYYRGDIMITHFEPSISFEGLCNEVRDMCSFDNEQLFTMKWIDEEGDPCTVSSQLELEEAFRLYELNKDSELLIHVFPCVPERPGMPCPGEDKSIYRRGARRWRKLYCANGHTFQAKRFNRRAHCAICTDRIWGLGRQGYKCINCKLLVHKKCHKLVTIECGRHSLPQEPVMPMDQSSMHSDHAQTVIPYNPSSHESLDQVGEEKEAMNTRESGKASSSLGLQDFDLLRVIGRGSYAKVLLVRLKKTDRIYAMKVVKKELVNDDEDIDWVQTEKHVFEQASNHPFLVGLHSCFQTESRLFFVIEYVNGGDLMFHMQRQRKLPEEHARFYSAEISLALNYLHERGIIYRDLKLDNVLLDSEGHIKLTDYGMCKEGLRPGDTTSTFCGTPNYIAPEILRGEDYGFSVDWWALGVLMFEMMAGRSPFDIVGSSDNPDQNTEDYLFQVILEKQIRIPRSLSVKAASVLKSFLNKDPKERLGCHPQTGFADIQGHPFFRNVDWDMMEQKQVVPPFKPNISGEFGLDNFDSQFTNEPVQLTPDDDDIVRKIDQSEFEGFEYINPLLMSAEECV
Sequence of CAMK1 (Q14012 whole entry): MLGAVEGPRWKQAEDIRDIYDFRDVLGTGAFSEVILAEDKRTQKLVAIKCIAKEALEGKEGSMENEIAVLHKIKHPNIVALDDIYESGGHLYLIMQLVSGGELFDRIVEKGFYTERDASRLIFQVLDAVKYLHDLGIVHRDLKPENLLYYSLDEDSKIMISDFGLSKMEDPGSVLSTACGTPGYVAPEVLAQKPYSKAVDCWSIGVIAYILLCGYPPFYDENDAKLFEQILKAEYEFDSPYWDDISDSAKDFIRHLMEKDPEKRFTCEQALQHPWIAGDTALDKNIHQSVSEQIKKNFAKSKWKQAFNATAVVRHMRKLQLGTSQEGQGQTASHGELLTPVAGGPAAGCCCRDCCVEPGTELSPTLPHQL
Sequence of TYK2(JH2domain-pseudokinase) (P29597 589-875): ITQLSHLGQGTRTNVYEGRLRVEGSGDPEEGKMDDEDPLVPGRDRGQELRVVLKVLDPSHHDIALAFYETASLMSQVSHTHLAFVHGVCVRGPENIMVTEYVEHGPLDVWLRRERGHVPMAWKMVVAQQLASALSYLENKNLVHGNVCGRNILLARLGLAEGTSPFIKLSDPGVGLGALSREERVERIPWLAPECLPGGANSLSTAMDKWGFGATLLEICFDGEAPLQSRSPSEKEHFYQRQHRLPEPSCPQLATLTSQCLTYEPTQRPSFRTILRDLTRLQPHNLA
Sequence of MST3 (Q9Y6E0 whole entry): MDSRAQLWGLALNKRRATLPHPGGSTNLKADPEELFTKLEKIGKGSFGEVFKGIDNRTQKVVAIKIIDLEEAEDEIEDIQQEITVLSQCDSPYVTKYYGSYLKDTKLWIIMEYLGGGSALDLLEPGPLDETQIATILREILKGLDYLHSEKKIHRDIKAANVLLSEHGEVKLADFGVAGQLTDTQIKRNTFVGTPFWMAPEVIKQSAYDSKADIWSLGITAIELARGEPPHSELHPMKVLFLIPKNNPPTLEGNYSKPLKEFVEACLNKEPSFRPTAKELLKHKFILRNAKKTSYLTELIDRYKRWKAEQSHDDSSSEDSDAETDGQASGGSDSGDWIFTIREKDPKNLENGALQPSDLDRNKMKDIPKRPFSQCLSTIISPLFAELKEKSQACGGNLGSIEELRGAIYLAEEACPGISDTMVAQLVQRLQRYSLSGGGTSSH
Sequence of PAK4 (O96013 whole entry): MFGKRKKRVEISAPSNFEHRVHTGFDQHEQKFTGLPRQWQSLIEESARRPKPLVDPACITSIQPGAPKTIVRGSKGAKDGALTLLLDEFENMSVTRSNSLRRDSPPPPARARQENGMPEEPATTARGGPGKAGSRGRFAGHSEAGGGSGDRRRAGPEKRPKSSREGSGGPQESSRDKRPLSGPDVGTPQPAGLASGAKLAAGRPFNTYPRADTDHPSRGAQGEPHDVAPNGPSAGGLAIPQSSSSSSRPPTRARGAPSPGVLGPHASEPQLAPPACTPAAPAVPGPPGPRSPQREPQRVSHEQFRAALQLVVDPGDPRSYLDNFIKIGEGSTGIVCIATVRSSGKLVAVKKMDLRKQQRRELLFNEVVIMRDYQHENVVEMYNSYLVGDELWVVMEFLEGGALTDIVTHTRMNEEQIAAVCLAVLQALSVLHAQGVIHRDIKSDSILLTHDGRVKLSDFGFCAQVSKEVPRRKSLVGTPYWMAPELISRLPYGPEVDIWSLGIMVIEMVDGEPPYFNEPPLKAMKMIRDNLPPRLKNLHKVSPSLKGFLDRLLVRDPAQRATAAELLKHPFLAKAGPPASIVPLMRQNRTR
Sequence of IKK-epsilon (Q14164 whole entry): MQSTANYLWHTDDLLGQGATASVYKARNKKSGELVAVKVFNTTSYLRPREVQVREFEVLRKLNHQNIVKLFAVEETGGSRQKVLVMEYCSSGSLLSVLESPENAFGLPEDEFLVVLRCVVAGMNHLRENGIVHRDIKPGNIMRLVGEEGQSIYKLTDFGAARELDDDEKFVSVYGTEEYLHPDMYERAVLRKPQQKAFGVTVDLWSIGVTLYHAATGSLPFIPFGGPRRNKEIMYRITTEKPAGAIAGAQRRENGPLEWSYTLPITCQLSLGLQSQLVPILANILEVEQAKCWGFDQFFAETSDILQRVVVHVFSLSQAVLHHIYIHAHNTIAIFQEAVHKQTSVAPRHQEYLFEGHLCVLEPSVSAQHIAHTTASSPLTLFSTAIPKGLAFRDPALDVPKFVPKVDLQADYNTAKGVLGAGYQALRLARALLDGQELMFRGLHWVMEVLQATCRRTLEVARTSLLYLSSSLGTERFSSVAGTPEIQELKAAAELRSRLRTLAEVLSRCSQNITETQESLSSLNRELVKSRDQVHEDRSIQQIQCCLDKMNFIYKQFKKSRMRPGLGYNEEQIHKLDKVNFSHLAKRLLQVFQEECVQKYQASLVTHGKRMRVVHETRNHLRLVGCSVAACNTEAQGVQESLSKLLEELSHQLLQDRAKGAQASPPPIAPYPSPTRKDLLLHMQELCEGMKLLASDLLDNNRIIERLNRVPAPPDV

Row | SMILES | remaining binding at 10 µM (VPS34) [%] | remaining binding at 10 µM (YANK2) [%] | remaining binding at 10 µM (PIK3CA(E542K)) [%] | remaining binding at 10 µM (MKNK1) [%] | remaining binding at 10 µM (FLT3-autoinhibited) [%] | remaining binding at 10 µM (RET) [%] | remaining binding at 10 µM (PAK4) [%] | remaining binding at 10 µM (MERTK) [%] | remaining binding at 10 µM (WEE1) [%] | remaining binding at 10 µM (BTK) [%] | remaining binding at 10 µM (CDK3) [%] | remaining binding at 10 µM (p38-beta) [%] | remaining binding at 10 µM (IKK-epsilon) [%] | remaining binding at 10 µM (CAMK2A) [%] | remaining binding at 10 µM (SGK) [%] | remaining binding at 10 µM (PRKCI) [%] | remaining binding at 10 µM (TGFBR1) [%] | remaining binding at 10 µM [1] [%] | remaining binding at 10 µM (MARK4) [%] | remaining binding at 10 µM (PYK2) [%] | also measured
1 | COc1cc(N2CCC(N3CCN(C)CC3)CC2)ccc1Nc1ncc2c(n1)N(C)c1sc(C)nc1C(=O)N2 [Compound 3, 6-((2-methoxy-4-(4-(4-methylpiperazin-1-yl)piperidin-1-yl)phenyl)amino)-2,4-dimethyl-4,9-dihydro-10H-pyrimido[5,4-b]thiazolo[5,4-e][1,4]diazepin-10-one] | 100 | 85 | 100 | 100 | 100 | 99 | 65 | 93 | 88 | 100 | 87 | 55 | 78 | 76 | 100 | 73 | 88 | 100 | 83 | 41 | remaining binding at 10 µM (MAPKAPX5; MAPKAPX5, 10000 nM): 100%; remaining binding at 10 µM (STK39): 100%; remaining binding at 10 µM (NEK11): 100%; remaining binding at 10 µM (CAMK1): 100%; remaining binding at 10 µM (YSK4): 100%; remaining binding at 10 µM (JNK1): 100%; remaining binding at 10 µM (MARK3): 96%; remaining binding at 10 µM (MST3): 89%; remaining binding at 10 µM (PFPK5(P. falciparum)): 100%; remaining binding at 10 µM (ULK2): 100%; remaining binding at 10 µM (GRK3): 100%; remaining binding at 10 µM (NIK): 85%; remaining binding at 10 µM (PIKFYVE): 98%; remaining binding at 10 µM (FLT3(D835Y)): 76%; remaining binding at 10 µM (CSNK1A1L): 78%
2 | COc1cc(N2CCC(N3CCN(C)CC3)CC2)ccc1Nc1ncc2c(n1)N(C)c1sc(C)nc1C(=O)N2C [Compound 5, 6-((2-methoxy-4-(4-(4-methylpiperazin-1-yl)piperidin-1-yl)phenyl)amino)-2,4,9-trimethyl-4,9-dihydro-10H-pyrimido[5,4-b]thiazolo[5,4-e][1,4]diazepin-10-one] | 89 | 100 | 93 | 96 | 99 | 100 | 100 | 100 | 98 | 100 | 100 | 95 | 100 | 100 | 100 | 97 | 100 | 100 | 87 | 85 | remaining binding at 10 µM (MAPKAPX5; MAPKAPK5, 10000 nM): 93%; remaining binding at 10 µM (STK39): 77%; remaining binding at 10 µM (NEK11): 100%; remaining binding at 10 µM (CAMK1): 92%; remaining binding at 10 µM (YSK4): 93%; remaining binding at 10 µM (JNK1): 100%; remaining binding at 10 µM (MARK3): 81%; remaining binding at 10 µM (MST3): 90%; remaining binding at 10 µM (PFPK5(P. falciparum)): 97%; remaining binding at 10 µM (ULK2): 81%; remaining binding at 10 µM (GRK3): 81%; remaining binding at 10 µM (NIK): 93%; remaining binding at 10 µM (PIKFYVE): 60%; remaining binding at 10 µM (FLT3(D835Y)): 91%; remaining binding at 10 µM (CSNK1A1L): 100%
